{"source": "patent US20140221286A1", "about": "“SODIUM CHANNEL BLOCKERS REDUCE GLUCAGON SECRETION” (Gilead Sciences, Inc., priority 2011, published 2014)", "key": {"human pancreatic islets [1]": {"test_system": "human pancreatic islets", "test": "Glucagon secretion in human pancreatic islets under low glucose (3 mM), ELISA", "format": "cell-based", "details": "3 mM glucose"}, "human pancreatic islets [2]": {"test_system": "human pancreatic islets", "test": "Veratridine-induced glucagon secretion in human pancreatic islets", "format": "cell-based", "details": "veratridine 30 μM"}, "rat pancreatic islets [3]": {"test_system": "rat pancreatic islets", "test": "Epinephrine-induced glucagon secretion in rat pancreatic islets", "format": "cell-based", "details": "epinephrine 5 μM; at 30 μM"}, "rat pancreatic islets [4]": {"test_system": "rat pancreatic islets", "test": "Arginine-induced glucagon secretion in rat pancreatic islets", "format": "cell-based", "details": "L-arginine 20 mM"}, "[5]": {"test_system": "STZ-induced diabetic mice", "test": "STZ-induced diabetic mouse, animal model of type 1 diabetes", "format": "in vivo", "method": "Streptozotocin (STZ) induces diabetes by selectively destroying the pancreatic β-cells. Five-week old male C57BL/6J mice were injected with STZ (40 mg/kg, i.p., dissolved in cold 0.025 mol/L sodium citrate-buffered solution at pH 4.5, freshly made right before injection) for 5 consecutive days to induce diabetes. Fasting plasma glucose (FPG) levels were determined 2 days after STZ treatment. Diabetic mice were then divided into STZ+vehicle and STZ+ranolazine group (10 mice/group) based on body weight (BW) and blood glucose levels. Age and gender matched non-diabetic mice were used as “normal” controls (n=3). For the following 8 weeks, mice were given either vehicle or ranolazine (20 mg/kg in water, p.o., twice daily). BW and FPG levels were monitored once a week. HbA1c levels were measured using a DCA 2000+ clinical analyzer (Siemens) at 0, 4 and 8 weeks of treatment. At the end of the treatment, pancreases from all groups were collected, fixed in 10% formalin overnight and then embedded in paraffin. HE staining and fluorescent staining were performed to review the islet morphology in all groups."}, "ZDF diabetic rats": {"test_system": "ZDF diabetic rats", "test": "ZDF diabetic rats, animal model of type 2 diabetes", "format": "in vivo, rat", "details": "for water consumption (surrogate marker for diabetes) / HbA1c levels versus vehicle group / fasting plasma glucose levels versus vehicle: in Purina 5008 diet; for water consumption (surrogate marker for diabetes): during diabetes development; for HbA1c levels versus vehicle group: weeks 4, 6 and 8; for fasting plasma glucose levels versus vehicle: weeks 7 and 9", "method": "All sections from fluorescent staining were viewed under fluorescent microscope and the stained areas were digitally photographed at a magnification of 20×. The images taken at different magnification were normalized using the standard ruler grade (S1 Finder Graticule, 68040, Electron Microscopy Science, Hatfield, Pa.). Analyses of islet areas and entire section areas were performed using ImageJ software (NIH, MD). Three sections from each of 6 animals per treatment group were analyzed. Data are presented as mean±SEM. *, p<0.05; **, p<0.01; ***, p<0.001 by One-way ANOVA.\nMale ZDF Leprfa/Crl rats were received at 5 weeks of age from Charles River Laboratories Inc., (Wilmington, Mass.) and were acclimated until study initiation at 6 weeks of age. Drugs were given to the animals in Purina 5008 for 10 weeks at doses approximately 170 mg/kg/d of ranolazine, 0.6 mg/kg/d of compound A and 30 mg/kg/d of sitagliptin as positive control. Fasting (12-14 h fast) and non-fasting blood samples were obtained by tail-nick and blood glucose was measured using a Freestyle Lite glucose meter (Abbott Laboratories Inc., Abbott Park, Ill.). HbA1c levels were monitored every other week. Twenty four hour water consumption as surrogate marker for diabetes for each rat was measured at least once per week."}, "hNaV1.3": {"molecular_target": "T1, hNaV1.3 (Homo sapiens, UniProt Q9NY46)", "T1 construct": "(Vanderbilt University, Nashville, Tenn.)", "T1 sequence (Q9NY46 1-1951 isoform Q9NY46-4)": "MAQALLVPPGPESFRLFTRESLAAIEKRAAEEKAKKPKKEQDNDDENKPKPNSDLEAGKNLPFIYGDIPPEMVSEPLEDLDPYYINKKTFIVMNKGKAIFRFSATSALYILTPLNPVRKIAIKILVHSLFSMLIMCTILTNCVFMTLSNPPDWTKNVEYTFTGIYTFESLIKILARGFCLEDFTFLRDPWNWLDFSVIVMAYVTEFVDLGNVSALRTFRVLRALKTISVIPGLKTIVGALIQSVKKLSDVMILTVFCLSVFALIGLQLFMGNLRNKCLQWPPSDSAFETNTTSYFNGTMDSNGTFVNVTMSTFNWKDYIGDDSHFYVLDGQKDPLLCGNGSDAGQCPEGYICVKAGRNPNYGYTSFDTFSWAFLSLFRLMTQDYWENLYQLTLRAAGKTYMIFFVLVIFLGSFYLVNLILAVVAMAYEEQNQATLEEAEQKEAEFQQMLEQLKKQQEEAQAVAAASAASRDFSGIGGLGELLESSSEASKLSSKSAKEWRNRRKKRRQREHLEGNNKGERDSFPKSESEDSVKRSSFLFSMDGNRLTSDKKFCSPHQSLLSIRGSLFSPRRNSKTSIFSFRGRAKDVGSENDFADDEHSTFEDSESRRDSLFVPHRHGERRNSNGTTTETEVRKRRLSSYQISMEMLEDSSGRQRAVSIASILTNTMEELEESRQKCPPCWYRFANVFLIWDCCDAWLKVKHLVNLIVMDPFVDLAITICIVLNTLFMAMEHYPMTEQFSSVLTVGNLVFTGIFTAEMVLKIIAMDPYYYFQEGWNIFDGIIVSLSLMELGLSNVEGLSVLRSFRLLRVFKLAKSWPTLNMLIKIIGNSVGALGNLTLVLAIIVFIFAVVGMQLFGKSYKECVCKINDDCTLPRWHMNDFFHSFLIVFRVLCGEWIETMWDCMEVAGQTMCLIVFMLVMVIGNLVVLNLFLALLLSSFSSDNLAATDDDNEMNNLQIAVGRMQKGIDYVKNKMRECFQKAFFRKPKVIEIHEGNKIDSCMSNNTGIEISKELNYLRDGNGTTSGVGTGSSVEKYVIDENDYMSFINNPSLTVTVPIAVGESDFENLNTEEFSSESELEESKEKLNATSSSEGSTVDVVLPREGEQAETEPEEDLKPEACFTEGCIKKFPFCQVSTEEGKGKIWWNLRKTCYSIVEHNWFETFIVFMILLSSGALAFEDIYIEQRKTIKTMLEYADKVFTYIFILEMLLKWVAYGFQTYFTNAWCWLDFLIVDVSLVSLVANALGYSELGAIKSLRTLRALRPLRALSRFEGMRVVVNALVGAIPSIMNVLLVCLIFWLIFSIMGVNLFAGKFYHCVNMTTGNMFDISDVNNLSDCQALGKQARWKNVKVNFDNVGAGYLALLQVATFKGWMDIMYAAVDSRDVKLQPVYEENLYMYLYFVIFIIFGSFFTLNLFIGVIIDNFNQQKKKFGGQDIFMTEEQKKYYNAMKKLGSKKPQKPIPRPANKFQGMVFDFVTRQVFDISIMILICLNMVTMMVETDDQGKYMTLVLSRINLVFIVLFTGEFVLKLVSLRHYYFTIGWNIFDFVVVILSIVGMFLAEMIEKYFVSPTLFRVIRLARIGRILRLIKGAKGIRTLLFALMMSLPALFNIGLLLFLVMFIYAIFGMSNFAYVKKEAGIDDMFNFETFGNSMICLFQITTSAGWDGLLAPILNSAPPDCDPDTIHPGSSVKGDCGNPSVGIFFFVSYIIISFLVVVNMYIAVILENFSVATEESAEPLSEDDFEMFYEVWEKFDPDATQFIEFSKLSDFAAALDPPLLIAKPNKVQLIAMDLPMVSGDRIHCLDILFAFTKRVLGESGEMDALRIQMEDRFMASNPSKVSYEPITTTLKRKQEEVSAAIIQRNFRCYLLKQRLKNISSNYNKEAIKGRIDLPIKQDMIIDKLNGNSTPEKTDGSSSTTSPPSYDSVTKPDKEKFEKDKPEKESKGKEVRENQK", "T1 sequence (Q07699 19-218 partner)": "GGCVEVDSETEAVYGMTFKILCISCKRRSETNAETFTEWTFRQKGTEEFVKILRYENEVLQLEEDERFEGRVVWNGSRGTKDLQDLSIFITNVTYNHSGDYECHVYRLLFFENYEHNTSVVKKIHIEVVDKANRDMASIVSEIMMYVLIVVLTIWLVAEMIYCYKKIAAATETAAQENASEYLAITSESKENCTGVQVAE", "T1 sequence (O60939 30-215 partner)": "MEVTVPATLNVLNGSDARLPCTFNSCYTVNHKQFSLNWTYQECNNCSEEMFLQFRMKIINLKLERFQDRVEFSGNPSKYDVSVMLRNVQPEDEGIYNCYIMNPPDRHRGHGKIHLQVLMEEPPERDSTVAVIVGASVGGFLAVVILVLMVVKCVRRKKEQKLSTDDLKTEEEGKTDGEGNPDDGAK", "test": "Voltage-dependent block (VDB) of hNaV1.3, QPatch whole-cell voltage-clamp in HEK-293 cells", "format": "cell-based", "details": "8 s prepulse to -55 mV; at a given concentration (not given)", "method": "Voltage-dependent block (VDB) of […] was determined by whole-cell voltage-clamp recordings of sodium current using a QPatch 16× automated electrophysiological system in HEK 293 cells overexpressing Nav 1.3 and Nav 1.7 sodium channels, respectively. VDB of peak current was measured using an 8 s conditioning prepulse (to -55 mV for NaV1.3 and to −60 mV for […]) followed by a test pulse (0 mV, 20 ms). Currents are normalized to the peak current recorded in the absence of drug and expressed as percent inhibition. […] Glucagon secretion in the cells was induced by the treatment with veratridine at 30 μM for 1 hour in Krebs-Ringer buffer containing 0.1% BSA. Percent inhibition of glucagon secretion by Na channel blockers was calculated from the reduction of veratridine-induced glucagon secretion in the absence of drug.\n(Vanderbilt University, Nashville, Tenn.). The cells were continuously maintained in a humidified, 5% CO2 atmosphere at 37° C. in DMEM high glucose growth medium supplemented with 10% FBS, 2 mM L-glutamine, 100 U/mL penicillin, 100 μg/mL streptomycin, 1 mg/mL G418 and 3 μg/mL puromycin.\nWhole-cell voltage-clamp recordings were used to measure the activity of test compounds against hNaV1.3 and hNaV1.7. Sodium currents were recorded at room temperature using a QPatch 16× automated electrophysiological system (Sophion Bioscience, Copenhagen, Denmark). Cells were washed with PBS and then incubated with Detachin for 2 minutes at room temperature. Cells were then resuspended in growth media, pelleted by centrifugation and resuspended in CHO-S-SFM II serum free media supplemented with 100 U/mL penicillin, 100 μg/mL streptomycin and 10 mM HEPES. The cells were allowed to recover for 30 min at room temperature with constant stirring and then loaded into the QPatch cell holder.\nThe cells were loaded into primed single hole (2 MΩ) large QPlates and the whole-cell configuration was established using the default protocol. Cells were allowed to stabilize for 10 min after establishment of the whole-cell configuration before current was measured. […] All currents are low-pass Bessel filtered at 5 kHz and digitized at 50 kHz.\nSpecific voltage-clamp protocols assessing voltage-dependent block (VDB, also termed state-dependent block) are used. VDB of peak current was measured following an 8 s conditioning prepulse (to -55 mV for NaV1.3 and to −60 mV for NaV1.7) followed by a test pulse to 0 mV (20 ms). An interpulse (−120 mV, 10 ms) was used to recover non-drug bound channels from fast inactivation. The prepulse potential was determined by the steady-state inactivation curves for NaV1.3 and NaV1.7. […] Multiple applications of drug were used to ensure complete solution exchange and the cells were allowed to stabilize in the drug containing solution for two minutes. Currents were normalized to the peak current recorded in the absence of drug and expressed as percent inhibition."}, "[6]": {"details": "after 8 weeks treatment, fluorescence staining"}}, "data": [{"smiles": "COc1ccccc1OCC(O)CN1CCN(CC(=O)Nc2c(C)cccc2C)CC1", "note": "(racemic) [Ranolazine, ±-N-(2,6-dimethylphenyl)-4-[2-hydroxy-3-(2-methoxyphenoxy)-propyl]-1-piperazineacetamide]", "values": [{"measurement": "maximal reduction of glucagon secretion as compared to the vehicle control", "setting": "human pancreatic islets [1]; at 30 μM", "value": "36±4", "unit": "%"}, {"measurement": "reduction of veratridine-induced glucagon secretion", "setting": "human pancreatic islets [2]; at 30 μM", "value": "36±9", "unit": "%"}, {"measurement": "reduction of epinephrine-induced increase of glucagon secretion", "setting": "rat pancreatic islets [3]", "value": "44±8", "unit": "%"}, {"measurement": "reduction of L-arginine-induced increase in glucagon secretion", "setting": "rat pancreatic islets [4]; at 10 μM", "value": "31±9", "unit": "%"}, {"measurement": "fasting plasma glucose (FPG)", "setting": "[5]; 20 mg/kg p.o. twice daily, week 4", "value": "264 ± 30", "unit": "mg/dL"}, {"measurement": "fasting plasma glucose (FPG)", "setting": "[5]; 20 mg/kg p.o. twice daily, week 6 to week 8", "value": "188 ± 20", "unit": "mg/dL"}, {"measurement": "HbA1c", "setting": "[5]; 20 mg/kg p.o. twice daily, week 8", "value": "4.6±0.2", "unit": "%"}, {"measurement": "insulin-positive area per islet", "setting": "[5]; [6]", "value": "69±2.4", "unit": "%"}, {"measurement": "percentage of total islet (insulin and glucagon) area", "setting": "[5]; [6]", "value": "0.30±0.03", "unit": "%"}, {"measurement": "insulin staining per islet", "setting": "ZDF diabetic rats; 10 weeks treatment", "value": "91.2±1.5", "unit": "%"}, {"measurement": "insulin/glucagon ratio", "setting": "ZDF diabetic rats; 10 weeks treatment", "value": "12.1±2.4"}, {"measurement": "islet area/pancreas area", "setting": "ZDF diabetic rats; 10 weeks treatment", "value": "0.36±0.1", "unit": "%"}, {"measurement": "staining of glucagon per islet versus vehicle", "setting": "ZDF diabetic rats; 10 weeks treatment", "value": "significantly less"}, {"measurement": "water consumption (surrogate marker for diabetes)", "setting": "ZDF diabetic rats", "value": "significantly prevented the increase"}, {"measurement": "HbA1c levels versus vehicle group", "setting": "ZDF diabetic rats", "value": "significantly lower"}, {"measurement": "fasting plasma glucose levels versus vehicle", "setting": "ZDF diabetic rats", "value": "significantly lower"}, {"measurement": "hNav1.3 VDB % Inhibition", "setting": "hNaV1.3", "value": 11.21, "unit": "%"}]}, {"smiles": "FC(F)(F)Oc1ccc(-c2ccc3nnc(C(F)(F)F)n3c2)cc1", "note": "[Compound A, 6-(4-(trifluoromethoxy)phenyl)-3-(trifluoromethyl)-[1,2,4]triazolo[4,3-α]pyridine]", "values": [{"measurement": "maximal reduction of glucagon secretion as compared to the vehicle control", "setting": "human pancreatic islets [1]; at 3 μM", "value": "51±9", "unit": "%"}, {"measurement": "reduction of veratridine-induced glucagon secretion", "setting": "human pancreatic islets [2]; at 3 μM", "value": "58±7", "unit": "%"}, {"measurement": "reduction of L-arginine-induced increase in glucagon secretion", "setting": "rat pancreatic islets [4]; at 1 μM", "value": "24±6", "unit": "%"}, {"measurement": "insulin staining per islet", "setting": "ZDF diabetic rats; 10 weeks treatment", "value": "90.0±2.8", "unit": "%"}, {"measurement": "islet area/pancreas area", "setting": "ZDF diabetic rats; 10 weeks treatment", "value": "0.51±0.16", "unit": "%"}, {"measurement": "staining of glucagon per islet versus vehicle", "setting": "ZDF diabetic rats; 10 weeks treatment", "value": "significantly less"}, {"measurement": "water consumption (surrogate marker for diabetes)", "setting": "ZDF diabetic rats", "value": "significantly prevented the increase"}, {"measurement": "HbA1c levels versus vehicle group", "setting": "ZDF diabetic rats", "value": "significantly lower"}, {"measurement": "fasting plasma glucose levels versus vehicle", "setting": "ZDF diabetic rats", "value": "significantly lower"}, {"measurement": "hNav1.3 VDB % Inhibition", "setting": "hNaV1.3", "value": 65.42, "unit": "%"}]}]}
